Test results: patent US10538521B2, “Pyrimidine derivative having antimalarial activity” (CARNA BIOSCIENCES, INC., priority 2016, dated 2020)
Where a name gives a salt, the structure may show the parent alone. Read-outs that look alike come from different tables or passages of the source.

Experiments:
[1] = test system: FCR3 strain, a drug sensitive strain of Plasmodium falciparum; assay: In vitro antimalarial assay (p-LDH, Malstat), FCR3 strain; type: cell-based; conditions: read-out: Antimalarial activity (IC50 value), Strain FCR3
From the text: (§1) For the evaluation of the antimalarial activity of the compound of the present invention, K1 strain, a drug resistant strain of Plasmodium falciparum, and FCR3 strain, a drug sensitive strain thereof, which were generous gift from Professor Kiyoshi Kita of the Graduate School of Medicine and Faculty of Medicine, the University of Tokyo, were used to measure the in vitro antimalarial activity of the compound against those Plasmodium species according to the method established by Otoguro et al. (Otoguro, K., Kohana, A., Manabe, C., Ishiyama, A., Ui, H., Shiomi, K., Yamada, H. & Omura, S.: Potent antimalarial activity of polyether antibiotic, X-206. J. Antibiot., 54: 658-663, (2001)).
(§2) The parasites were grown based on a slightly modified method from the original method reported by Trager and Jensen (Trager, W. and Jensen, J.: Human malaria parasites in continuous culture, Science, 193: 673-677, (1976)), and those which were maintained and sub-cultured by the method were used. More specifically, in a culture dish, erythrocytes infected with the protozoa, which had been sub-cultured using a RPMI 1640 medium to which 10% human plasma had been added and fresh human erythrocytes, were diluted (hematocrit value: 2 to 5%, parasitaemia: 0.25 to 1%), and were cultured at 37° C. in a mixed gas of 3% O2-4% CO2-93% N2, and continuously cultured while changing the medium and adding fresh erythrocytes at 2- or 3-day intervals.
(§3) A drug susceptibility test was performed by modifying the method established by Desjardins et al. (Desjardins, R. E., Canfield, C. J., Haynes, D. E. and Chulay, J. D.: Quantitative assessment of antimalarial activity in vitro by a semiautomated microdilution technique. Antimicrob. Agents Chemother., 16: 710-718 (1979)). More specifically, 190 μL of a suspension of protozoa which had been precultured (hematocrit value: 2%, parasitaemia: 0.5 or 1%) and 10 μL of a solution of a test compound (5% DMSO solution) serially diluted so that the final concentration was 12.5 to 0.0001 μM were put in each well of a 96-well plate, and after mixing, the same was cultured for 72 hours in the above mixed gas.
(§4) For the measurement of the growth of protozoa, the method established by Makler (Makler, M. T., Rise, J. M., Williams, J. A., Bancroft, J. E., Piper, R. C., Gibbins, B. L. and Hinrichs, D. J.: Parasite lactate dehydrogenase as an Assay for Plasmodium falciparum drug sensitivity, Am. J. Med. Hyg., 48: 739-741 (1993)) was modified to colorimetrically determine parasite lactate dehydrogenase (p-LDH) using Malstat reagent (Flow Inc., USA).
(§5) More specifically, 72 hours after the culture, the 96-well plate was directly frozen at −20° C. for 18 hours and melted at 37° C. to hemolyze the protozoan-infected erythrocytes and destroy the protozoa to prepare a crude enzyme solution. 100 μL of Malstat reagent and 20 μL of the crude enzyme solution were added to and mixed in each well of another 96-well plate, and after reacting for 15 minutes at room temperature, 20 μL of a nitroblue tetrazolium 2 mg/mL phenazine ethosulfate 0.1 mg/mL=1:1 solution was added to the respective wells, and reaction was performed in dark conditions at room temperature for 2 hours.
(§6) The absorbance of the blue formazan product formed by the reaction was measured at a measurement wavelength of 655 nm by using a microplate reader (Labsystems, Finland) to colorimetrically determine the growth of the protozoa. The 50% growth inhibitory concentration for the protozoa of the compound (IC50 value) was determined based on the concentration-response curve of the compound.

[2] = test system: K1 strain, a drug resistant strain of Plasmodium falciparum; assay: In vitro antimalarial assay (p-LDH, Malstat), K1 strain; type: cell-based; conditions: read-out: Antimalarial activity (IC50 value), Strain K1
From the text: as §1, §2, §3, §4, §5, §6

[3] = P. falciparum FCR3 (drug sensitive), 72 h culture, p-LDH readout
[4] = P. falciparum K1 (drug resistant), 72 h culture, p-LDH readout

| SMILES | IC50 [1, 3] [nM] | IC50 [2, 4] [nM] | IC50 ([1]; FCR3, 72 h) [nM] | IC50 ([2]; K1, 72 h) [nM] |
| --- | --- | --- | --- | --- |
| COC1CCN(c2cc(Nc3ccn4ccnc4c3)nc(Nc3cc(C)cc(C)n3)n2)CC1 [Example 131, N2-(4,6-dimethylpyridin-2-yl)-N4-(imidazo[1,2-a]pyridin-7-yl)-6-(4-methoxypiperidin-1-yl)pyrimidine-2,4-diamine] | < 100 | < 100 | – | – |
| Cc1ccc(Nc2nc(Nc3ccn4ccnc4c3)cc(N3CCCCC3)n2)cn1 [Example 79, N4-(imidazo[1,2-a]pyridin-7-yl)-N2-(6-methylpyridin-3-yl)-6-(piperidin-1-yl)pyrimidine-2,4-diamine] | 100 to 1000 | 100 to 1000 | – | – |
| CC(C)(C)c1ccnc(Nc2nc(Nc3ccn4ccnc4c3)cc(N3CCOCC3)n2)c1 [Example 67, N2-(4-(tert-butyl)pyridin-2-yl)-N4-(imidazo[1,2-a]pyridin-7-yl)-6-morpholinopyrimidine-2,4-diamine] | 100 to 1000 | 100 to 1000 | – | – |
| Cc1cc(C)nc(Nc2nc(Nc3ccn4ccnc4c3)cc(N3CC(C)(C)C3)n2)c1 [Example 177, 6-(3,3-dimethylazetidin-1-yl)-N2-(4,6-dimethylpyridin-2-yl)-N4-(imidazo[1,2-a]pyridin-7-yl)pyrimidine-2,4-diamine] | < 100 | < 100 | – | – |
| CCCCc1cccc(Nc2nc(Nc3ccn4ccnc4c3)cc(N3CC(C)(C)C3)n2)n1 [Example 180, N2-(6-butylpyridin-2-yl)-6-(3,3-dimethylazetidin-1-yl)-N4-(imidazo[1,2-a]pyridin-7-yl) pyrimidine-2,4-diamine] | < 100 | < 100 | – | – |
| CC(C)c1cccc(Nc2nc(Nc3ccn4ccnc4c3)cc(N3CCOCC3)n2)n1 [Example 123, N4-(imidazo[1,2-a]pyridin-7-yl)-N2-(6-isopropylpyridin-2-yl)-6-morpholinopyrimidine-2,4-diamine formate] | – | – | < 100 | 100 to 1000 |
| Cc1cc(C)nc(Nc2nc(Nc3ccn4ccnc4c3)cc(Nn3cccc3)n2)c1 [Example 200, N2-(4,6-dimethylpyridin-2-yl)-N4-(imidazo[1,2-a]pyridin-7-yl)-N6-(1H-pyrrol-1-yl)pyrimidine-2,4,6-triamine] | 100 to 1000 | 100 to 1000 | – | – |
| COc1cc(C)nc(Nc2nc(Nc3ccn4ccnc4c3)cc(N3CCCCC3)n2)c1 [Example 190, N4-(imidazo[1,2-a]pyridin-7-yl)-N2-(4-methoxy-6-methylpyridin-2-yl)-6-(piperidin-1-yl) pyrimidine-2,4-diamine] | < 100 | < 100 | – | – |
| CCc1ccnc(Nc2nc(Nc3ccn4ccnc4c3)cc(N3CCC(N(C)C)CC3)n2)c1 [Example 129, 6-(4-(dimethylamino)piperidin-1-yl)-N2-(4-ethylpyridin-2-yl)-N4-(imidazo[1,2-a]pyridin-7-yl)pyrimidine-2,4-diamine] | < 100 | < 100 | – | – |
| CCCCc1cc(C)cc(Nc2nc(Nc3ccn4ccnc4c3)cc(N3CCCCC3)n2)n1 [Example 187, N2-(6-butyl-4-methylpyridin-2-yl)-N4-(imidazo[1,2-a]pyridin-7-yl)-6-(piperidin-1-yl) pyrimidine-2,4-diamine] | 100 to 1000 | 100 to 1000 | – | – |
| Cc1ccnc(Nc2nc(Nc3ccn4ccnc4c3)cc(N3CCN(C)[C@@H](C)C3)n2)c1 [Example 35, (S)-6-(3,4-dimethylpiperazin-1-yl)-N4-(imidazo[1,2-a]pyridin-7-yl)-N2-(4-methylpyridin-2-yl)pyrimidine-2,4-diamine] | 1000 to 10000 | 1000 to 10000 | – | – |
| COc1cncc(Nc2nc(Nc3ccn4ccnc4c3)cc(N3CCOCC3)n2)c1 [Example 19, N4-(Imidazo[1,2-a]pyridin-7-yl)-N2-(5-methoxypyridin-3-yl)-6-morpholinopyrimidine-2,4-diamine] | 100 to 1000 | 100 to 1000 | – | – |
| Cc1cc(C)nc(Nc2nc(Nc3ccn4ccnc4c3)cc(NN3CCOCC3)n2)c1 [Example 199, N2-(4,6-dimethylpyridin-2-yl)-N4-(imidazo[1,2-a]pyridin-7-yl)-N6-morpholinopyrimidine-2,4,6-triamine] | < 100 | < 100 | – | – |
| c1cnc(Nc2nc(Nc3ccn4ccnc4c3)cc(N3CCOCC3)n2)nc1 [Example 16, N4-(Imidazo[1,2-a]pyridin-7-yl)-6-morpholino-N2-(pyrimidin-2-yl)pyrimidine-2,4-diamine] | – | 1000 to 10000 | – | – |
| Cc1cc(C)nc(Nc2nc(Nc3ccn4ccnc4c3)cc(N3CCC(C)CC3)n2)c1 [Example 183, N2-(4,6-dimethylpyridin-2-yl)-N4-(imidazo[1,2-a]pyridin-7-yl)-6-(4-methylpiperidin-1-yl) pyrimidine-2,4-diamine] | 100 to 1000 | 100 to 1000 | – | – |
| Cc1cc(CC(C)C)nc(Nc2nc(Nc3ccn4ccnc4c3)cc(N3CCCCC3)n2)c1 [Example 188, N4-(imidazo[1,2-a]pyridin-7-yl)-N2-(6-isobutyl-4-methylpyridin-2-yl)-6-(piperidin-1-yl) pyrimidine-2,4-diamine] | < 100 | < 100 | – | – |
| CCCCc1cccc(Nc2nc(Nc3ccn4ccnc4c3)cc(N3CC4(COC4)C3)n2)n1 [Example 181, N2-(6-butylpyridin-2-yl)-N4-(imidazo[1,2-a]pyridin-7-yl)-6-(2-oxa-6-azaspiro[3.3]heptan-6-yl)pyrimidine-2,4-diamine] | 100 to 1000 | < 100 | – | – |
| Cc1ccnc(Nc2nc(Nc3ccn4ccnc4c3)cc(-n3ccnc3)n2)c1 [Example 42, N4-(imidazo[1,2-a]pyridin-7-yl)-6-(1H-imidazol-1-yl)-N2-(4-methylpyridin-2-yl)pyrimidine-2,4-diamine] | 100 to 1000 | 100 to 1000 | – | – |
| O=[N+]([O-])c1ccnc(Nc2nc(Nc3ccn4ccnc4c3)cc(N3CCOCC3)n2)c1 [Example 49, N4-(imidazo[1,2-a]pyridin-7-yl)-6-morpholino-N2-(4-nitropyridin-2-yl)pyrimidine-2,4-diamine] | 100 to 1000 | 1000 to 10000 | – | – |
| CCOc1ccc(Nc2nc(Nc3ccn4ccnc4c3)cc(N3CCN(C)[C@@H](C)C3)n2)cn1 [Example 52, (S)-6-(3,4-Dimethylpiperazin-1-yl)-N2-(6-ethoxypyridin-3-yl)-N4-(imidazo[1,2-a]pyridin-7-yl) pyrimidine-2,4-diamine] | – | 1000 to 10000 | – | – |
| CC(C)Oc1ccc(Nc2nc(Nc3ccn4ccnc4c3)cc(N3CCN(C)[C@@H](C)C3)n2)cn1 [Example 56, (S)-6-(3,4-dimethylpiperazin-1-yl)-N4-(imidazo[1,2-a]pyridin-7-yl)-N2-(6-isopropoxypyridin-3-yl)pyrimidine-2,4-diamine] | – | 1000 to 10000 | – | – |
| CC(C)Oc1ccc(Nc2nc(Nc3ccn4ccnc4c3)cc(N3CCN(C)CC3)n2)cn1 [Example 59, N4-(imidazo[1,2-a]pyridin-7-yl)-N2-(6-isopropoxypyridin-3-yl)-6-(4-methylpiperazin-1-yl) pyrimidine-2,4-diamine] | – | 1000 to 10000 | – | – |
| Oc1ccc(Nc2nc(Nc3ccn4ccnc4c3)cc(N3CCOCC3)n2)cn1 [Example 24, 5-(4-(Imidazo[1,2-a]pyridin-7-ylamino)-6-morpholinopyrimidin-2-ylamino)pyridin-2-ol] | – | 1000 to 10000 | – | – |
| C=CCOc1ccc(Nc2nc(Nc3ccn4ccnc4c3)cc(N3CCOCC3)n2)cn1 [Example 76, N2-(6-(allyloxy)pyridin-3-yl)-N4-(imidazo[1,2-a]pyridin-7-yl)-6-morpholinopyrimidine-2,4-diamine] | – | 1000 to 10000 | – | – |
| c1cc(Nc2nc(Nc3ccn4ccnc4c3)cc(N3CCOCC3)n2)ccn1 [Example 3, N4-(imidazo[1,2-a]pyridin-7-yl)-6-morpholino-N2-(pyridin-4-yl)pyrimidine-2,4-diamine dihydrochloride] | – | – | – | 1000 to 10000 |
